What is called Ki is the dissociation constant of the complex between target and ligand, obtained from inhibition or displacement. For orientation: IC50 means the point on the concentration scale where inhibition reaches its midpoint. A word on the EC50: it is the concentration giving half of the maximal effect. Read a low EC50 as higher potency in that assay. Usually inhibition stands for the relative decrease from the control value, in per cent.

One data set addresses PHD1. To be noted: ref SI 6 (main 76); cited from earlier work.
The test system of another data set is PHD1, PHD2, PHD3. Conditions: RCC4/VHLHA, Hep3B, MCF7; western blot; ref SI 4; cited from earlier work. In general terms: Immunoblotting shows a protein as a band on a membrane.
In the next data set the target is T1, KDM2A (Homo sapiens, UniProt Q9Y2K7).
T1 sequence (Q9Y2K7 1-1162): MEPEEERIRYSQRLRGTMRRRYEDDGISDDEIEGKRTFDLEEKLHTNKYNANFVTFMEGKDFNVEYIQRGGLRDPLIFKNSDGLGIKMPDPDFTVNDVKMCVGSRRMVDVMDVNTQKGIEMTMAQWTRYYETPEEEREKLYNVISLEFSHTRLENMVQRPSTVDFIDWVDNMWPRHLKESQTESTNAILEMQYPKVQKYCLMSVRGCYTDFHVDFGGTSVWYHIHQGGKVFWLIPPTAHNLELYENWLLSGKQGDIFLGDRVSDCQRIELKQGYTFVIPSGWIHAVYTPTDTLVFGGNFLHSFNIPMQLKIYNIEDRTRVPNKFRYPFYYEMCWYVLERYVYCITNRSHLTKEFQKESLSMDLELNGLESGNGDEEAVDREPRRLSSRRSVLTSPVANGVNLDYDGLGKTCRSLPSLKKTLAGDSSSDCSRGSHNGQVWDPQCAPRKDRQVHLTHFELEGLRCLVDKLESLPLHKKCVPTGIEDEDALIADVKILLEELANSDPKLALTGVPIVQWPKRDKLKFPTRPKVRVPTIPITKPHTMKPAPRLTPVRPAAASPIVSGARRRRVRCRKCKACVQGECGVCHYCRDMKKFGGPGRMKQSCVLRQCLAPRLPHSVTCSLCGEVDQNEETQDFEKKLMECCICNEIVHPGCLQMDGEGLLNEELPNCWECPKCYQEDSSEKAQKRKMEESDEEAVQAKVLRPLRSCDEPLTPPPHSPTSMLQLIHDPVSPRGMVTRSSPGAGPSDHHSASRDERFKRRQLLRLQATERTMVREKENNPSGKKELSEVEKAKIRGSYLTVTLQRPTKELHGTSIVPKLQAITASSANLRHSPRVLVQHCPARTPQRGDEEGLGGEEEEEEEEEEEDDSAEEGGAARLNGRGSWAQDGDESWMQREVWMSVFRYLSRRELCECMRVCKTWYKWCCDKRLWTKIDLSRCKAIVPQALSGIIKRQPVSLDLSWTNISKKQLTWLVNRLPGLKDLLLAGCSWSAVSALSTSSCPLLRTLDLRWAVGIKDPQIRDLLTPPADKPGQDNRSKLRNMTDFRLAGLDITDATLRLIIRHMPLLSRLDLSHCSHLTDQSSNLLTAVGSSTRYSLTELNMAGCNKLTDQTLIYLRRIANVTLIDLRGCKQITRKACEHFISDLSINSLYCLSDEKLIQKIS
Conditions: read-out: Ki (calculated) KDM2A; Cheng-Prussoff from reported IC50; ref 75 (SI ref 4).

For a further data set, the target named is PHD3. Conditions: ref SI 6 (main 76); cited from earlier work.
The subject of another data set is BBOX1. Conditions: read-out: IC50 BBOX1; [2OG] 40 µM, enzyme 25 nM; ref SI 4 (main 75); cited from earlier work.
The subject of the next data set is FTO. Conditions: NOMO-1, U937, MA9.3ITD; dot blot and LC-MS/MS; ref SI 12; cited from earlier work.
For data set [1], the target named is T2, KDM4B (Homo sapiens, UniProt O94953).
T2 sequence (O94953 1-1096): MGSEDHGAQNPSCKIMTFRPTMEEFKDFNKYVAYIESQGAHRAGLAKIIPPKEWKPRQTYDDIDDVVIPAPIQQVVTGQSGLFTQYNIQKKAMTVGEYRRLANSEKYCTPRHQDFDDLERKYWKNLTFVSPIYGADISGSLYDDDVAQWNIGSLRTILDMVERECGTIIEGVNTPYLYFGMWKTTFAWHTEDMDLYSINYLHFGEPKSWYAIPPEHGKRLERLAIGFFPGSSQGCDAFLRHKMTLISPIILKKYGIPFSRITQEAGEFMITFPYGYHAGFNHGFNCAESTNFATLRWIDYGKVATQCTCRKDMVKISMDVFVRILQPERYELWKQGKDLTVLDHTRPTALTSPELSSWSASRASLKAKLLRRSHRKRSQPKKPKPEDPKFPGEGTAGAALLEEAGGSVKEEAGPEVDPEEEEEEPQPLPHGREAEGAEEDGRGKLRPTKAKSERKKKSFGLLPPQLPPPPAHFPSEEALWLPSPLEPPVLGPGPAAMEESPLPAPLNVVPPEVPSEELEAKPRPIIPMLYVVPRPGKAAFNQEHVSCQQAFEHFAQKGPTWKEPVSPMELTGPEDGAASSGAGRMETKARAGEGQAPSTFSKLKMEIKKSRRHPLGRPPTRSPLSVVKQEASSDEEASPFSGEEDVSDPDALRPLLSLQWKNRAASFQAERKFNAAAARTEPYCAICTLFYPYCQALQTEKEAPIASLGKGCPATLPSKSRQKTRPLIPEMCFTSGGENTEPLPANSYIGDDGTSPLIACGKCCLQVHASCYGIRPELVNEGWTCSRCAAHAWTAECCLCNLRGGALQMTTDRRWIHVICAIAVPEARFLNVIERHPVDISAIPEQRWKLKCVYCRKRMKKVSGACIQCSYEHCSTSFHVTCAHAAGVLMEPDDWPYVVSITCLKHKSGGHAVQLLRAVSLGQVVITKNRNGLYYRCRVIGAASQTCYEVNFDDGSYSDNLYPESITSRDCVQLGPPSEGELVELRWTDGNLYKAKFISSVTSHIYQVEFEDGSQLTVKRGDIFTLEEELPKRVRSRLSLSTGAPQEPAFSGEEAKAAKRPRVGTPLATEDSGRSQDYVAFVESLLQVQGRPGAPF
The data set is described as follows: biochemical.

In data set [2] the target is T3, KDM6A (Homo sapiens, UniProt O15550). Conditions: read-out: IC50 KDM6A; [2OG] […]; ref SI 8 (main 64); cited from earlier work.
T3 sequence (O15550 whole entry): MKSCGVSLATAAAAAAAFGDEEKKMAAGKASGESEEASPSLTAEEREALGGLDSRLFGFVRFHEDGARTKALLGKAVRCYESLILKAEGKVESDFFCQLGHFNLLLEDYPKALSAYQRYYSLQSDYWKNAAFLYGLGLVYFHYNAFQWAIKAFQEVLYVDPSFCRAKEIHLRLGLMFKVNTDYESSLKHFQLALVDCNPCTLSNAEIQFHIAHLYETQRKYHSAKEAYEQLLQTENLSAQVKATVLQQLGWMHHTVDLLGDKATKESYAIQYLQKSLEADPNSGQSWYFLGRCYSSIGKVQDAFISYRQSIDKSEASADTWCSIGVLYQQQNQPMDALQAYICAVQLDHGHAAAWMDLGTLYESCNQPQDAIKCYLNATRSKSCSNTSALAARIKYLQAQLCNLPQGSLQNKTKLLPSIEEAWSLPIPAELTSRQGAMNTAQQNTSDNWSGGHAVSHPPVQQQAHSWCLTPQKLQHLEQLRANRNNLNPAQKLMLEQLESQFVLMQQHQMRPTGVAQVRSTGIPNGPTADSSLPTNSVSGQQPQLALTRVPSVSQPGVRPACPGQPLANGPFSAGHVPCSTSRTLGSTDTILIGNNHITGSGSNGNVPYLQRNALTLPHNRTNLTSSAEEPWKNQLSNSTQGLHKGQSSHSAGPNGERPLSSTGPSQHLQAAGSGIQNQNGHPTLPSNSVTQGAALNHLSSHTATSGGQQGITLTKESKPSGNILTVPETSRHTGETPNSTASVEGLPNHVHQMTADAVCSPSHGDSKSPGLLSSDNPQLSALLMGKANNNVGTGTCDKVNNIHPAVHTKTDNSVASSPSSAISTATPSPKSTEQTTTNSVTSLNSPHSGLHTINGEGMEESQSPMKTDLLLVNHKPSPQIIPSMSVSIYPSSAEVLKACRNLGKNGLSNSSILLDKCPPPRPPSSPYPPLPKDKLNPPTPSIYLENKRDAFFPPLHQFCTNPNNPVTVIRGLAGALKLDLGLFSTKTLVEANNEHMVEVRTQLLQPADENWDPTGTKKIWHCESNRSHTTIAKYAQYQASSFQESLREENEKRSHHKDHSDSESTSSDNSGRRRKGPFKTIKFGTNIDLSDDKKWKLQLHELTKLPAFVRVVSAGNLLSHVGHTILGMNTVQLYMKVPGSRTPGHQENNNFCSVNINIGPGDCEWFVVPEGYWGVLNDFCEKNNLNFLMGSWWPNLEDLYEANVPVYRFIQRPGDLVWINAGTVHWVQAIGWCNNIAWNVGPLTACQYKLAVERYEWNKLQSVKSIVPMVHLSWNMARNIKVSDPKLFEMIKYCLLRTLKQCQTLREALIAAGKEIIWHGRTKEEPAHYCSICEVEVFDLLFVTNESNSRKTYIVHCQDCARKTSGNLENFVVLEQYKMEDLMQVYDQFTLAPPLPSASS
In another data set the target is TET2CD (Homo sapiens, UniProt Q6N021).
Data set [3] has as its target T2, KDM4B. To be noted: read-out: IC50 KDM4B; [2OG] 20 µM; ref SI 8 (main 64); cited from earlier work.
In data set [4] the test system is KDM5B. Conditions: read-out: IC50 KDM5B (14CO2 radioactive); [2OG] 40 µM; ref SI 8 (main 64); cited from earlier work.
For data set [5], the system named is KDM5B. To be noted: cited from earlier work.
Data set [6] has as its target T4, KDM6B (Homo sapiens, UniProt O15054). Conditions: read-out: IC50 KDM6B; [2OG] 200 µM; ref SI 8 (main 64); cited from earlier work.
Data set [7] has as its target T4, KDM6B. Conditions: read-out: Ki (calculated) KDM6B; Cheng-Prussoff from reported IC50; ref SI 8.
Data set [8] deals with T3, KDM6A. To be noted: read-out: Ki (calculated) KDM6A; Cheng-Prussoff from reported IC50; ref SI 8.
A further data set deals with ABH3. Conditions: U87-MG, U373-MG, HT-1080; western blot; ref SI 11; cited from earlier work.
For data set [9], the target named is T5, TET1CD (Homo sapiens, UniProt Q8NFU7).
T5 sequence (Q8NFU7 1418-2136): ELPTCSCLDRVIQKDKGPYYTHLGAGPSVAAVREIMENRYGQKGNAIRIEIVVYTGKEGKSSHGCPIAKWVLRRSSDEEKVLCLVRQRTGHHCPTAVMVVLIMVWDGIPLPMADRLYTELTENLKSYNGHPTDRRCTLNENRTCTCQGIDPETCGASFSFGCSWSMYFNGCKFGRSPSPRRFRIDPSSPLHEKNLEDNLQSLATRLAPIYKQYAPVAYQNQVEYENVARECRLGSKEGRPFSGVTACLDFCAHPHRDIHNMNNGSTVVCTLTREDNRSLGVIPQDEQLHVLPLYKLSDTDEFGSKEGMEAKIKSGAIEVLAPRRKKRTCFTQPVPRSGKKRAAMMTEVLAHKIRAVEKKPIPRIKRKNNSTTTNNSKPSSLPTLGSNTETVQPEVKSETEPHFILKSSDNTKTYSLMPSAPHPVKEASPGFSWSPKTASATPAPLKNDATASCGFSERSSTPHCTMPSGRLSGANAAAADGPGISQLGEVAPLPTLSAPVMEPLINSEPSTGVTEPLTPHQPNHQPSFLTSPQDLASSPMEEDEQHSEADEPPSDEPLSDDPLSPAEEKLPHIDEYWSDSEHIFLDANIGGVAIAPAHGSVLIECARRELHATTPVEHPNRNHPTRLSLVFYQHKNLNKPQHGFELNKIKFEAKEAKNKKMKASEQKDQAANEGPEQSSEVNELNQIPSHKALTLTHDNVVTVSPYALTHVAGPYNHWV

Data set [10] addresses T5, TET1CD. The data set is described as follows: cell-based. To be noted: U2OS, read-out: % inhibition of TET1 in cells at […].
The nature of the next data set: in vitro. Conditions: human, Cellular pCC50 TET1CD, nuclear count by DAPI staining, 24 h; named compound dosed.
Another data set has as its system FIH. To be noted: read-out: IC50 FIH; [2OG] 100 µM, enzyme 1,000 nM; ref SI 4 (main 75); cited from earlier work.

Each structure is given as a SMILES string.

T4 sequence (O15054 whole entry): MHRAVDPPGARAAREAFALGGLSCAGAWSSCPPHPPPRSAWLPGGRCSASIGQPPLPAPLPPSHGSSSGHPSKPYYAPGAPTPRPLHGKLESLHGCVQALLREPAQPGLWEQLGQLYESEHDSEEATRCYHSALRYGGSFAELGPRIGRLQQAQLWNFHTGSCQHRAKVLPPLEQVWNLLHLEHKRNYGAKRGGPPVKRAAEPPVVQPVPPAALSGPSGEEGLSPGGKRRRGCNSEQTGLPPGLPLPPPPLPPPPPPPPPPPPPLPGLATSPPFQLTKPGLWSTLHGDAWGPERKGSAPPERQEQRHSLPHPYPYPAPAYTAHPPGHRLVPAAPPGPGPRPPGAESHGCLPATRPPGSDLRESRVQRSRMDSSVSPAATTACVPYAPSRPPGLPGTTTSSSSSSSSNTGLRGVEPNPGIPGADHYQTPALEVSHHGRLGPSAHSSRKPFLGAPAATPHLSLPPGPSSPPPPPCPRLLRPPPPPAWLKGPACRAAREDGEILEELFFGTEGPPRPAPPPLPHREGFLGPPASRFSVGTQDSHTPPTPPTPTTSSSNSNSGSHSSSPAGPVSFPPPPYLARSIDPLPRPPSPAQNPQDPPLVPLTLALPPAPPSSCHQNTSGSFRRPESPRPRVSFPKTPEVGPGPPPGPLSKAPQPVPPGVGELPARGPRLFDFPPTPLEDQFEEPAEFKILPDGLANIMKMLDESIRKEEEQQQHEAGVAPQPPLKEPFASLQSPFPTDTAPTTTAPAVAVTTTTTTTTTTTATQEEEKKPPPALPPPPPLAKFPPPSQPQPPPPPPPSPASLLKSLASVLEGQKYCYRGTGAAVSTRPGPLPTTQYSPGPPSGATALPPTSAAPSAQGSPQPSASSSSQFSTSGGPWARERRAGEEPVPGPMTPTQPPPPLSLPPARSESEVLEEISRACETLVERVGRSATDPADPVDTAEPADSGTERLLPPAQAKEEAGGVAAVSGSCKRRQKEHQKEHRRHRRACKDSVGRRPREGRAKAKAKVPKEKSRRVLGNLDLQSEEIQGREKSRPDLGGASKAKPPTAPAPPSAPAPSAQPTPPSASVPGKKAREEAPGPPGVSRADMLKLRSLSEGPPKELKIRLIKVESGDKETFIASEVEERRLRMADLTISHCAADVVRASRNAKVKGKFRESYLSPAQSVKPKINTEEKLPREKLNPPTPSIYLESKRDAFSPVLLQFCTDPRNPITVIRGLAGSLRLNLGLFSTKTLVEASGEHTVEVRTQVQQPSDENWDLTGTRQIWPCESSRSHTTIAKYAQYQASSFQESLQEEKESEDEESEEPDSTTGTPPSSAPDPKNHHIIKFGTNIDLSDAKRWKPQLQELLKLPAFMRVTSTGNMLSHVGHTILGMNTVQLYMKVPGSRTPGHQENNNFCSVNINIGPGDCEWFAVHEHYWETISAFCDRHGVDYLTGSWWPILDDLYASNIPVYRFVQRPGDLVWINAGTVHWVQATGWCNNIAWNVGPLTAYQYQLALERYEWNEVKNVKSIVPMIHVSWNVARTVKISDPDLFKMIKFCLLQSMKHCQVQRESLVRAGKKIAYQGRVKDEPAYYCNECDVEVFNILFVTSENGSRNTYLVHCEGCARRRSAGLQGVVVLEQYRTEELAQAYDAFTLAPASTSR

With `O=C(O)CC[C@@H](O)C(=O)O` [R-2HG, (2R)-hydroxyglutarate], the Ki on PHD1 was 1150 µM; at KDM2A it was 74 µM; on PHD3, 90 µM; at KDM4B [1] it was 53 µM; at KDM6B [7], 89 µM; on KDM6A [8], 43 µM. In the data set with PHD1, PHD2, PHD3, the “cellular inhibition PHD1–3 (in words)” value was “Putative inhibition of PHD”. For the same compound, the IC50 is 13200 µM in the data set on BBOX1; 180 µM on KDM6A [2]; 150 µM on KDM4B [3]; […] with KDM5B [4]; 350 µM on KDM6B [6]. For the same compound, in the data set with FTO, the “cellular inhibition FTO (in words)” value is “Inhibition”. Besides, at TET2CD, the “α-value TET2CD” value is listed as 11 ± 13. The “cellular inhibition KDM5B at 2.0 mM (in words)” value with KDM5B [5] was “No inhibition”. In the data set on ABH3, the “cellular inhibition ABH3 (in words)” value is “Inhibition”.

On to `CCCCCCCCOC(=O)[C@H](O)CCC(=O)O` [octyl-(R)-2HG, R-Octyl-2-hydroxyglutarate], for which the EC50 on TET1CD [9] was around 1500 µM. The “Cellular pEC50 TET1CD” value on TET1CD [9] (U2OS, 24 h with Dox induction, 5hmC IF, named compound dosed, replicates in parentheses) is 2.83 ± 0.09 (3). For the same compound, the inhibition at 1500 µM on TET1CD [10] was around 50%. Besides, the CC50 at 24 h in “in vitro” is above 2000 µM.

Turning to `O=C(O)CC[C@H](O)C(=O)O` [S-2HG, S-2-hydroxyglutarate], the IC50 in the data set with BBOX1 was 142 µM; in the data set on FIH it was 189 µM; at KDM6A [2], 180 µM; at KDM4B [3] it was 450 µM; on KDM6B [6] it was 750 µM. Further, the Ki at KDM4B [1] was 158 µM; on KDM6B [7], 191 µM; at KDM6A [8], 43 µM. Further, the “cellular inhibition KDM5B at 1.0 mM (in words)” value with KDM5B [5] (U2OS, 1.0 mM, immunofluorescence, ref SI 10) is “No inhibition”.

The values above are taken from publication PMC10983004 (Journal of Medicinal Chemistry, 2024).
